Like-named read-outs stand apart in the source and are kept apart here.

What all share (assay type): in vivo
The subject of experiment [1] is Pseudoperonospora cubensis. Put plainly: Cucumber Downy Mildew (PSPECU), foliar spray, percent disease control. Conditions: foliar, read-out: PSPECU percent control. The procedure:
The activity of the compounds as effective fungicides was determined by applying the compounds to plants and observing control of fungal disease. The compounds were formulated at 200 ppm in 10 vol. % acetone plus 90 vol. % Triton X water (deionized water 99.99 wt %+0.01 wt % Triton X100), giving a “formulated test compound.” In a few cases, compounds were formulated at 75 or 8.3 ppm rather than 200 ppm in 10 vol. % acetone plus 90 vol. % Triton X water (deionized water 99.99 wt. %+0.01 wt. % Triton X100), giving a “formulated test compound.” Formulated test compounds were applied to plants using a turn table sprayer fitted with two opposing air atomization nozzles which delivered approximately 1500 L/ha of spray volume. All plants were inoculated with spores of the fungus the day after treatment, then incubated in an environment conducive to disease development. Disease severity was evaluated 4 to 15 days later, depending on the disease and the speed of disease development. The following experiments were performed in the laboratory to determine the fungicidal efficacy of the compounds of the invention. Cucumber Downy Mildew (causal agent Pseudoperonospora cubensis; Bayer code […]): Cucumber plants (variety Bush Champion) were grown from seed in a soil-less peat-based potting mixture (Metromix) until the first true leaf was 20-80% expanded. Each pot contained 1 seedling. These plants were sprayed until wet with the formulated test compound. On the following day, the leaves were inoculated with an aqueous suspension of downy mildew sporangia and the plants were kept in high humidity for one day to permit sporangia to germinate and infect the leaf. The plants were then incubated in a growth chamber until disease developed on untreated control plants. […] The effectiveness of the test compounds at controlling disease when sprayed on leaves was determined by assessing the severity of disease on treated plants, then converting the severity to percent control based on the level of disease on untreated, inoculated plants. Data are the level (in percent) at which the given disease was controlled when the given compound was applied to the foliage of the plants at 200 ppm. In a few cases (noted in the table) the compound was applied to the plants at 75 ppm or 8.3 ppm.

The test system of the next experiment is Cochliobolus sativus. The experiment can be described thus: Spot Blotch of Wheat (COCHSA), foliar spray, percent disease control.
In the next experiment the test system is Colletotricum lagenarium. The experiment can be described thus: Cucumber Anthracnose (COLLLA), foliar spray, percent disease control. Particulars: foliar. The procedure: The activity of the compounds as effective fungicides was determined by applying the compounds to plants and observing control of fungal disease. The compounds were formulated at 200 ppm in 10 vol. % acetone plus 90 vol. % Triton X water (deionized water 99.99 wt %+0.01 wt % Triton X100), giving a “formulated test compound.” In a few cases, compounds were formulated at 75 or 8.3 ppm rather than 200 ppm in 10 vol. % acetone plus 90 vol. % Triton X water (deionized water 99.99 wt. %+0.01 wt. % Triton X100), giving a “formulated test compound.” Formulated test compounds were applied to plants using a turn table sprayer fitted with two opposing air atomization nozzles which delivered approximately 1500 L/ha of spray volume. All plants were inoculated with spores of the fungus the day after treatment, then incubated in an environment conducive to disease development. Disease severity was evaluated 4 to 15 days later, depending on the disease and the speed of disease development. The following experiments were performed in the laboratory to determine the fungicidal efficacy of the compounds of the invention. Cucumber Anthracnose (causal agent Colletotricum lagenarium; Bayer code COLLLA): Cucumber plants (variety Bush Champion) were grown from seed in a soil-less peat-based potting mixture (Metromix) until the first true leaf was 20-80% expanded. Each pot contained 1 seedling. These plants were sprayed until wet with the formulated test compound. On the following day, the leaves were inoculated with an aqueous spore suspension of Colletotricum lagenarium and the plants were kept in high humidity for one day to permit spores to germinate and infect the leaf. The plants were then transferred to a growth chamber until disease developed on untreated control plants. […] The effectiveness of the test compounds at controlling disease when sprayed on leaves was determined by assessing the severity of disease on treated plants, then converting the severity to percent control based on the level of disease on untreated, inoculated plants. Data are the level (in percent) at which the given disease was controlled when the given compound was applied to the foliage of the plants at 200 ppm. In a few cases (noted in the table) the compound was applied to the plants at 75 ppm or 8.3 ppm.

Where [2] appears, read: Bipolaris sorokiniana, foliar; read-out: COCHSA percent control.

For the compound `COc1ccc(CCNc2ncnc3nccnc23)cc1Cl` [Compound 158], the pest or weed control at 200 µg/mL (in experiment [1]; in the experiment on Cochliobolus sativus (setting [2]); in the experiment with Colletotricum lagenarium) was 0 to 49% throughout.

On to `COc1ccnc(Oc2ccc(CCNc3ncnc4nccnc34)cc2)n1` [Compound 16], for which the pest or weed control at 200 µg/mL lay in the range of 80 to 100% in experiment [1], 0 to 49% in the experiment on Cochliobolus sativus (setting [2]) and 0 to 49% with Colletotricum lagenarium.

As to `CC(C)OC(=O)c1ccnc(Oc2ccc(CCNc3ncnc4nccnc34)cc2)c1` [Compound 173], the pest or weed control at 200 µg/mL was 80 to 100% in experiment [1], 0 to 49% in the experiment with Cochliobolus sativus (setting [2]) and 0 to 49% with Colletotricum lagenarium.

Turning to `CC(C)Cc1nnc(Oc2ccc(CCNc3ncnc4nccnc34)cc2)s1` [Compound 26], the pest or weed control at 200 µg/mL in experiment [1] lay within 80 to 100%; in the experiment on Cochliobolus sativus (setting [2]), 0 to 49%; in the experiment with Colletotricum lagenarium it was 0 to 49%.

With `Cc1c(CCNc2ncnc3nccnc23)ccc(Oc2c(F)cnc(C(F)(F)F)c2F)c1C` [Compound 149], the pest or weed control at 200 µg/mL in experiment [1] is 80 to 100%; in the experiment on Cochliobolus sativus (setting [2]), 0 to 49%; in the experiment with Colletotricum lagenarium, 0 to 49%.

Take `COc1cc(C(F)(F)F)cc(Oc2ccc(CCNc3ncnc4nccnc34)cc2OC)n1` [Compound 178]: the pest or weed control at 200 µg/mL (in experiment [1]; with Cochliobolus sativus (setting [2]); in the experiment with Colletotricum lagenarium) was 0 to 49% in each case.

For the compound `O=Cc1cc(Cl)cnc1Oc1ccc(CCNc2ncnc3nccnc23)cc1` [Compound 102], the pest or weed control at 200 µg/mL in experiment [1] was 80 to 100%; with Cochliobolus sativus (setting [2]) it was 0 to 49%; with Colletotricum lagenarium it was 0 to 49%.

For the compound `Fc1cnc(C(F)(F)F)c(F)c1Oc1cccc(CCNc2ncnc3nccnc23)c1` [Compound 71], the pest or weed control at 200 µg/mL (in experiment [1]; with Cochliobolus sativus (setting [2]); in the experiment on Colletotricum lagenarium) was 0 to 49% each time.

For the compound `c1ccc(-c2nsc(Oc3ccc(CCNc4ncnc5nccnc45)cc3)n2)cc1` [Compound 22], the pest or weed control at 200 µg/mL fell in the range of 50 to 79% in experiment [1], 0 to 49% in the experiment on Cochliobolus sativus (setting [2]) and 50 to 79% with Colletotricum lagenarium.

Take `CC(C)Oc1cc(CCNc2ncnc3nccnc23)ccc1Oc1cc(C(C)(F)F)ccn1` [Compound 195]: the pest or weed control at 200 µg/mL fell in the range of 80 to 100% in experiment [1], 0 to 49% in the experiment with Cochliobolus sativus (setting [2]) and 50 to 79% in the experiment with Colletotricum lagenarium.

Consider `CCOC(=O)c1ccnc(Oc2ccc(CCNc3ncnc4nccnc34)cc2)c1` [Compound 183], for which the pest or weed control at 200 µg/mL was in the range of 80 to 100% in experiment [1], 0 to 49% in the experiment with Cochliobolus sativus (setting [2]) and 0 to 49% with Colletotricum lagenarium.

Take `FC(F)(F)c1ccnc(Oc2cccc(CCNc3ncnc4nccnc34)c2)c1` [Compound 46]: the pest or weed control at 200 µg/mL fell in the range of 80 to 100% in experiment [1], 0 to 49% with Cochliobolus sativus (setting [2]) and 80 to 100% in the experiment on Colletotricum lagenarium.

Regarding `Cc1cc(C(F)(F)F)cc(Oc2ccc(CCNc3ncnc4nccnc34)cc2)n1` [Compound 69], the pest or weed control at 200 µg/mL lay in the range of 80 to 100% in experiment [1], 0 to 49% with Cochliobolus sativus (setting [2]) and 80 to 100% in the experiment on Colletotricum lagenarium.

As for `CC(Sc1ncnc2nccnc12)c1ccc(C#N)cc1` (stereo not drawn) [Compound 78], the pest or weed control at 200 µg/mL (in experiment [1]; with Cochliobolus sativus (setting [2]); in the experiment with Colletotricum lagenarium) was 0 to 49% each time.

As to `Cc1cc(CCNc2ncnc3nccnc23)ccc1O` [Compound 174], the pest or weed control at 200 µg/mL (in experiment [1]; in the experiment on Cochliobolus sativus (setting [2]); with Colletotricum lagenarium) was 0 to 49% each time.

Take `N#Cc1ccnc(Oc2cccc(OCCNc3ncnc4nccnc34)c2)c1` [Compound 88]: the pest or weed control at 200 µg/mL in experiment [1] was 80 to 100%; with Cochliobolus sativus (setting [2]), 0 to 49%; in the experiment with Colletotricum lagenarium, 0 to 49%.

As for `CCc1ccc(Oc2ccc(CCN(C(=O)OC(C)(C)C)c3ncnc4nccnc34)cc2)cc1` [Compound 139], the pest or weed control at 200 µg/mL (in experiment [1]; in the experiment with Cochliobolus sativus (setting [2]); in the experiment with Colletotricum lagenarium) was 0 to 49% in each case.

Regarding `FC(F)(F)c1ccnc(Cl)c1Oc1ccc(CCNc2ncnc3nccnc23)cc1` [Compound 56], the values for the pest or weed control at 200 µg/mL (in experiment [1]; in the experiment with Cochliobolus sativus (setting [2]); in the experiment on Colletotricum lagenarium) were 50 to 79%, 0 to 49% and 0 to 49%, respectively.

On to `Fc1ccc(-c2ccc(CCNc3ncnc4nccnc34)cc2)cn1` [Compound 121, {2-[4-(6-Fluoropyridin-3-yl)-phenyl]-ethyl}-pteridin-4-yl-amine], for which the pest or weed control at 200 µg/mL was in the range of 80 to 100% in experiment [1], 0 to 49% in the experiment on Cochliobolus sativus (setting [2]) and 0 to 49% with Colletotricum lagenarium.

Consider `Oc1ccc(CCNc2ncnc3nccnc23)cc1F` [Compound 177], for which the pest or weed control at 200 µg/mL (in experiment [1]; with Cochliobolus sativus (setting [2]); with Colletotricum lagenarium) was 0 to 49% each time.

Consider `COC(=O)c1ccnc(Oc2ccc(CCNc3ncnc4nccnc34)cc2)c1` [Compound 135], for which the values for the pest or weed control at 200 µg/mL (in experiment [1]; in the experiment with Cochliobolus sativus (setting [2]); with Colletotricum lagenarium) were 80 to 100%, 0 to 49% and 0 to 49%, respectively.

In the case of `COc1nsc(Oc2ccc(CCNc3ncnc4nccnc34)cc2)n1` [Compound 21], the pest or weed control at 200 µg/mL fell in the range of 50 to 79% in experiment [1], 0 to 49% in the experiment on Cochliobolus sativus (setting [2]) and 50 to 79% in the experiment on Colletotricum lagenarium.

On to `COc1cc(CCNc2ncnc3nccnc23)cc(OC)c1Oc1cc(C(F)(F)F)ccn1` [Compound 186], for which the pest or weed control at 200 µg/mL in experiment [1] fell in the range of 80 to 100%; with Cochliobolus sativus (setting [2]), 0 to 49%; in the experiment on Colletotricum lagenarium, 0 to 49%.

Take `FC(F)(F)c1ccc(Oc2ccc(CCNc3ncnc4ncc(Cl)nc34)cc2)nc1` [Compound 124]: the pest or weed control at 200 µg/mL in experiment [1] is 80 to 100%; in the experiment on Cochliobolus sativus (setting [2]), 0 to 49%; with Colletotricum lagenarium it was 0 to 49%.

Consider `FC(F)(F)c1cccnc1Oc1ccc(OCCNc2ncnc3nccnc23)cc1` [Compound 160], for which the figures for the pest or weed control at 200 µg/mL (in experiment [1]; in the experiment on Cochliobolus sativus (setting [2]); with Colletotricum lagenarium) were 80 to 100%, 0 to 49% and 0 to 49%, respectively.

With `Fc1nc(C(F)(F)F)c(F)c(Oc2ccc(CCNc3ncnc4nccnc34)cc2)c1F` [Compound 89], the pest or weed control at 200 µg/mL in experiment [1] lay in the range of 80 to 100%; with Cochliobolus sativus (setting [2]) it was 0 to 49%; in the experiment on Colletotricum lagenarium, 0 to 49%.

As to `CC(C)(C)OC(=O)N(CCc1ccc(O[Si](C)(C)C(C)(C)C)cc1)c1ncnc2nccnc12` [Compound 134, {2-[4-(tert-Butyldimethylsilanyloxy)-phenyl]-ethyl}-pteridin-4-yl-carbamic acid tert-butyl ester], the pest or weed control at 200 µg/mL lay within 0 to 49% in experiment [1]; 0 to 49% in the experiment on Cochliobolus sativus (Bipolaris sorokiniana, foliar, read-out: COCHSA percent control); 0 to 49% in the experiment on Colletotricum lagenarium.

With `FC(F)(F)c1cc(Oc2ccc(CCNc3ncnc4nccnc34)cc2)nc(C(F)(F)F)c1` [Compound 115], the pest or weed control at 200 µg/mL in experiment [1] is 80 to 100%; in the experiment with Cochliobolus sativus (setting [2]), 0 to 49%; with Colletotricum lagenarium it was 0 to 49%.

On to `CC(Nc1ncnc2nccnc12)c1ccc(O)cc1` (stereo not drawn) [Compound 65, 4-[1-(Pteridin-4-ylamino)-ethyl]-phenol], for which the pest or weed control at 200 µg/mL in experiment [1] lay within 50 to 79%; in the experiment on Cochliobolus sativus (setting [2]) it was 0 to 49%; with Colletotricum lagenarium, 0 to 49%.

For `COc1ccc(C(C)Nc2ncnc3nccnc23)cc1` (stereo not drawn) [Compound 17], the pest or weed control at 200 µg/mL in experiment [1] was in the range of 80 to 100%; with Cochliobolus sativus (setting [2]), 0 to 49%; with Colletotricum lagenarium, 50 to 79%.

(Values after US8895568B2, “Compositions comprising substituted pteridines as agrochemicals” (Dow AgroSciences LLC, priority 2009, dated 2014).)
